How the values were obtained:
[1] = system: PKC (from rats' brains); details: cited from earlier work
[2] = system: PKC; assay: PKC inhibition (partially purified PKC, Ca2+, phosphatidylserine and 1-oleoyl-2-acetylglycerol, histone III-S substrate); format: biochemical, rat
Source text: (§1) The PKC was partially purified from rat brain and assayed in the presence of its activators: Ca^2+, phosphatidylserine and 1-oleoyl-2-acetylglycerol. Histone III-S was used as phosphate acceptor. The MLCK was native enzyme from chicken gizzard fully activated by calmodulin. Kemptamide was used as phosphate acceptor.

[3] = system: SHR and DOC-rats; details: cited from earlier work
[4] = target: T1, MLCK (Gallus gallus, UniProt P11799); assay: MLCK inhibition (native enzyme from chicken gizzard, calmodulin activated, Kemptamide substrate); format: biochemical
T1 construct: Kemptamide as substrate
Source text: as §1

Row | SMILES | PKC inhibitory potency (in words) [1] | potency at PKC (in words) [2] | lowering of blood pressure (in words) [3] | potency at MLCK (in words) [4]
1 | CC12OC(CC1(O)C(=O)O)n1c3ccccc3c3c4c(c5c6ccccc6n2c5c31)CNC4=O (centres unmarked) [Example K252b] | inhibitory to PKC (from rats' brains) with good potency, in the nanomolar range |  |  | 
2 | COC(=O)[C@@]1(O)C[C@H]2O[C@]1(C)n1c3ccccc3c3c4c(c5c6ccccc6n2c5c31)C(=O)NC4 [Example K-252a] | inhibitory to PKC (from rats' brains) with good potency, in the nanomolar range | nanomolar potencies | lowers blood pressure in SHR and DOC-rats | nanomolar potencies

Reference: patent publication US5618809A, “Indolocarbazoles from saccharothrix aerocolonigenes copiosa subsp. nov SCC 1951 ATCC 53856” (Schering Corporation, priority 1995, dated 1997)
